Test results: US20210317165A1, “ZP3 FRAGMENTS IN IMMUNOTHERAPY OF OVARIAN CANCER” (LABORATOIRE HRA-PHARMA, priority 2018, published 2021)

Test system: ZP3-specific TCD8
Assay: ELISPOT IFNγ of spleen TCD8 stimulated ex vivo with APC pulsed with each peptide separately
Assay type: in vivo, HLA-A2/DR1 transgenic mice
Conditions: mice immunized with pool A+B, restimulation with each peptide separately
Experimental: HLA-A2/DR1 transgenic mice received three subcutaneous administrations of peptides pool and GM-CSF/CpG adjuvant as follow:
A first group (group 1) of mice received 100 μg/mice of a pool of peptides A+B (SEQ ID NO: 1, 2, 4, 5, 6, 10, 12, 13, 15 and 17) and GM-CSF adjuvant at Day 0 (D0). At D1, CpG wad injected. 100 μg/mice of pool of peptides A+B was injected at D14 and D30. Mice were sacrificed and analyzed at D40.
The ZP3-specific TCD8 response was measured by ex vivo stimulation of TCD8 from spleen of mice with APC pulsed with peptides (each peptides separately). The number of activated TCD8 cells was measured by ELISPOT IFNγ.

Q: “FTVDVFHFA (Peptide of human ZP3) [Peptide 5, hZP3 fragment, position 263]” was tested. Which “ZP3-specific TCD8 response” value (FIG. 2, listed as SEQ ID NO: 5) did it give?
A: The value was “strong specific TCD8 response (statistically significant)”.

Q: How did the “ZP3-specific TCD8 response” value (FIG. 2, listed as SEQ ID NO: 13) turn out when “NMIYITCHL (Peptide of human ZP3) [Peptide 13, hZP3 fragment, position 276]” was run?
A: The value was “strong specific TCD8 response (statistically significant)”.

Q: “LRLMEENWNA (Peptide of human ZP3) [Peptide 6, hZP3 fragment, position 174]” was tested. Which “ZP3-specific TCD8 response” value (FIG. 2, listed as SEQ ID NO: 6) did it give?
A: The value was “strong specific TCD8 response (statistically significant)”.
